According to patent US12642768B2, “Lipid nanoparticles” (Beijing Jitai Life Sciences Ltd, priority 2022, dated 2026):

System: not listed separately
Assay: Particle size and PDI of lipid nanoparticles by dynamic light scattering
Type: physicochemical
Conditions: LNP 50:38.5:10:1.5, N/P 6, luciferase mRNA
Description: (§1) Lipid nanoparticles were prepared by (1) dissolving and mixing ionizable lipid compounds, cholesterol, phospholipids and polyethylene glycolated lipids in ethanol at (molar percentages) 50%, 38.5%, 10% and 1.5%, respectively; (2) dissolving the mRNA active ingredient in 25 mM sodium acetate solution (pH=4.5); (3) using an automated high-throughput microfluidic system to mix the organic phase containing the lipid mixture and the aqueous phase containing the mRNA component in the flow ratio range of 1:1 to 1:4 at a mixing speed of 10 mL/min to 18 mL/min; (4) the prepared lipid nanoparticles (N/P ratio of 6) were diluted with phosphate buffer solution and the nanoparticle solutions were ultrafiltered to the original preparation volume using ultrafiltration tubes (purchased from Millipore) with a cut-off molecular weight of 30 kDa; and (5) the obtained nanoparticles were filtered through a sterile 0.2 μm filter membrane and then stored in a sealed glass vial at low temperature.
The particle size and particle size dispersity index (PDI) of the prepared lipid nanoparticles were measured using a Zetasizer Pro (purchased from Malvern Instruments Ltd) and a DynaPro NanoStar (purchased from Wyatt) dynamic light scattering instrument. The degree of RNA encapsulation by lipid nanoparticles was characterized by the Encapsulation Efficiency %, which reflects the degree of binding of lipid nanoparticles to RNA fragments. This parameter was measured by the method of Quant-it™ RiboGreen RNA Assay (purchased from Invitrogen). Lipid nanoparticle samples were diluted in TE buffer (10 mM Tris-HCl, 1 mM EDTA, pH=7.5). A portion of the sample solution was removed, to which 0.5% Triton (Triton X-100) was added, and then allowed to stand at 37° C. for 30 minutes. Immediately after the addition of RIBOGREEN® reaction solution, the fluorescence values were read on a Varioskan LUX multifunctional microplate reader (purchased from Thermofisher) at 485 nm for absorption and 528 nm for emission to give the encapsulation efficiency values.

| SMILES | Particle size dispersity (PDI) |
| --- | --- |
| CCCCCCCCCOC(=O)C(C)(C)CCCCCC(CCCCCC(C)(C)C(=O)OCC(CCCCC)CCCCCCC)OC(=O)CC1CCN(CCO)CC1 (centres unmarked) [Compound 114] | 0.04 |
| CCCCCCC#CCOC(=O)C(C)(C)CCCCCC(CCCCCC(C)(C)C(=O)OCCCCCCCCC)OC(=O)CCCN(C)C (centres unmarked) [Compound 42] | 0.07 |
| CCCCCCCCCOC(=O)C(C)(C)CCCCCCC(CCCCCCC(C)(C)C(=O)OCC(CCCCC)CCCCCCC)OC(=O)CCCN(C)C (centres unmarked) [Compound 125] | 0.07 |
| CCCCC(CC#CCOC(=O)C(C)(C)CCCCCC(CCCCCC(C)(C)C(=O)OCC#CCC(CCCC)CCCC)OC(=O)CCCN(C)C)CCCC [Compound 117] | 0.06 |
| CCCCCCCCCOC(=O)CC(C)(C)CCCCC(CCCCC(C)(C)CC(=O)OCCCCCCCCC)OC(=O)CCCN(C)C [Compound 97] | 0.25 |
| CCCCCCCCCOC(=O)C(C)(C)CCCCCC(CCCCCC(C)(C)C(=O)OCC(CCCCC)CCCCCCC)OC(=O)CC1CCN(C)CC1 (centres unmarked) [Compound 111] | 0.06 |
| CCCCCCCCCSC(=O)C(C)(C)CCCCCC(CCCCCC(C)(C)C(=O)SCCCCCCCCC)OC(=O)C1CCN(C)CC1 [Compound 106] | 0.05 |
| CCCCCCCCCOC(=O)C(C)(C)CCCCCC(CCCCCC(C)(C)C(=O)OCCCCCCCCC)OC(=O)CC1CCN(CCO)CC1 [Compound 113] | 0.03 |
| CCCCCCCCCSC(=O)C(C)(C)CCCCCC(CCCCCC(C)(C)C(=O)SCCCCCCCCC)OC(=O)CC1CCN(C)CC1 [Compound 108] | 0.05 |
| CCCCCCCCCOC(=O)C(C)(C)CCCCCC(CCCCCC(C)(C)C(=O)OCCCCCCCCC)OC(=O)C1CCN(C)CC1 [Compound 102] | 0.03 |
| CCCCCCCCCCOC(=O)C(C)(C)CCCCCC(CCCCCC(C)(C)C(=O)OCCCCCCCCCC)OC(=O)CCN1CCCC1 [Compound 92] | 0.05 |
| CCCCCCCCCOC(=O)C(C)(C)CCCCCC(CCCCCC(C)(C)C(=O)OCC#CC(CCCCCC)CCCCCC)OC(=O)CCCN(C)C (centres unmarked) [Compound 118] | 0.07 |
| CCCCCCCC(CCCCCCC)COC(=O)CCC(C)(C)CCCC(CCCC(C)(C)CCC(=O)OCC(CCCCCCC)CCCCCCC)OC(=O)CCCN(C)C [Compound 129] | 0.06 |
| CCCCCCCCCOC(=O)C(C)(C)CCCCC(CCCCC(C)(C)C(=O)OCC(CCCCC)CCCCCCC)OC(=O)CCCN(C)C (centres unmarked) [Compound 122] | 0.07 |
| CCCCCCCC#CCOC(=O)C(C)(C)CCCCCC(CCCCCC(C)(C)C(=O)OCC(CCCCC)CCCCCCC)OC(=O)CCCN(C)C (centres unmarked) [Compound 116] | 0.05 |
| CCCCCCCCCCOC(=O)C(C)(C)CCCCCC(CCCCCC(C)(C)C(=O)OCCCCCCCCCC)OC(=O)CN1CCOCC1 [Compound 91] | 0.05 |
| CCCCCCCCCOC(=O)CCCCCCC(CCCCCCC(=O)OCCCCCCCCC)OC(=O)CCCN(C)C [D1, reference compound] | 0.18 |
| CC(C)CCCCCCCOC(=O)CCC(C)(C)CCCC(CCCC(C)(C)CCC(=O)OCCCCCCCC(C)C)OC(=O)CCCN(C)C [Compound 127] | 0.05 |
| CCCCCCCCCCSC(=O)C(C)(C)CCCCCC(CCCCCC(C)(C)C(=O)SCCCCCCCCCC)OC(=O)C1CCN(C)CC1 [Compound 104] | 0.06 |
| CCCCCCCCCOC(=O)CCCCCCC(CCCCCCC(=O)OCC(CCCCC)CCCCCCC)OC(=O)CCCN(C)C (centres unmarked) [D2, reference compound] | 0.20 |

| SMILES | Particle size dispersity (PDI) |
| --- | --- |
| CCCCCCCCCOC(=O)C(C)(C)CCCCCCC(CCCCCCC(C)(C)C(=O)OCC(CCCCC)CCCCCCC)OC(=O)CCCCN(C)C (centres unmarked) [Compound 126] | 0.06 |
| CCCCCCCCCCSC(=O)C(C)(C)CCCCCC(CCCCCC(C)(C)C(=O)SCCCCCCCCCC)OC(=O)C1CCN(C(C)C)CC1 [Compound 105] | 0.05 |
| CCCCCCCCCSC(=O)C(C)(C)CCCCCC(CCCCCC(C)(C)C(=O)SCCCCCCCCC)OC(=O)CC1CCN(CCO)CC1 [Compound 110] | 0.01 |
| CCCCCCCCCOC(=O)C(C)(C)CCCCCC(CCCCCC(C)(C)C(=O)SCCCCCCCCC)OC(=O)CCCN(C)C (centres unmarked) [Compound 41] | 0.05 |
| CCCCCCCCCSC(=O)C(C)(C)CCCCCC(CCCCCC(C)(C)C(=O)OCC#CCCC(CCCC)CCCC)OC(=O)CCCN(C)C (centres unmarked) [Compound 119] | 0.05 |
| CCCCCCCCCCSC(=O)C(C)(C)CCCCCC(CCCCCC(C)(C)C(=O)OCCCCCCCCC)OC(=O)CCCN(C)C (centres unmarked) [Compound 40] | 0.05 |
| CCCCCCCC#CCOC(=O)C(C)(C)CCCCCC(CCCCCC(C)(C)C(=O)OCCCC(CCCCC)CCCCC)OC(=O)CCCN(C)C (centres unmarked) [Compound 115] | 0.04 |
| CCCCCCCCCOC(=O)C(C)(C)CCCCCC(CCCCCC(C)(C)C(=O)OCC(CCCCC)CCCCCCC)OC(=O)CCCN(C)C (centres unmarked) [Compound 46] | 0.09 |
| CCCCCCC(CCCCCC)CCOC(=O)CCC(C)(C)CCCC(CCCC(C)(C)CCC(=O)OCCC(CCCCCC)CCCCCC)OC(=O)CCCN(C)C [Compound 128] | 0.05 |
| CCCCCCCCCSC(=O)C(C)(C)CCCCCC(CCCCCC(C)(C)C(=O)OCC(CCCCC)CCCCCCC)OC(=O)CC1CCN(C)CC1 (centres unmarked) [Compound 112] | 0.08 |
| CCCCCCCCCCOC(=O)C(C)(C)CCCCCC(CCCCCC(C)(C)C(=O)OCCCCCCCCCC)OC(=O)CCN1CCOCC1 [Compound 90] | 0.05 |
| CCCCCCCCCSC(=O)C(C)(C)CCCCCC(CCCCCC(C)(C)C(=O)SCCCCCCCCC)OC(=O)CC1CCN(CC)CC1 [Compound 109] | 0.06 |
| CCCCCCCCCOC(=O)C(C)(C)CCCCCC(CCCCCC(C)(C)C(=O)OCCCCCCCCC)OC(=O)C1CCN(C(C)C)CC1 [Compound 103] | 0.04 |
| CCCCCCCCOC(=O)C(C)(C)CCCCCC(CCCCCC(C)(C)C(=O)OCCCCCCCC)OC(=O)C1CCN(C(C)C)CC1 [Compound 101] | 0.06 |
| CCCCCCCCCCOC(=O)C(C)(C)CCCCC(CCCCC(C)(C)C(=O)OCC(CCCCC)CCCCCCC)OC(=O)CCCN(C)C (centres unmarked) [Compound 123] | 0.05 |
| CCCCCCCCCCOC(=O)C(C)(C)CCCCCC(CCCCCC(C)(C)C(=O)OCCCCCCCCCC)OC(=O)C1CCN(C)CC1 [Compound 99] | 0.05 |
| CCCCC/C=C\C/C=C\CCCCCCCCC(CCCCCCCC/C=C\C/C=C\CCCCC)OC(=O)CCCN(C)C [DLin-MC3-DMA, reference compound] | 0.04 |
| CCCCCCC/C=C\COC(=O)CC(C)(C)CCCCC(CCCCC(C)(C)CC(=O)OCC(CCCCC)CCCCCCC)OC(=O)CCCN(C)C (centres unmarked) [Compound 98] | 0.13 |
| CCCCCCCCOC(=O)C(C)(C)CCCCCC(CCCCCC(C)(C)C(=O)OCCCCCCCC)OC(=O)C1CCN(C)CC1 [Compound 100] | 0.07 |
| CCCCCCCCCSC(=O)C(C)(C)CCCCCC(CCCCCC(C)(C)C(=O)SCCCCCCCCC)OC(=O)C1CCN(C(C)C)CC1 [Compound 107] | 0.05 |

Same assay, conditions: LNP ionizable lipid:cholesterol:DSPC:DMG-PEG2000 50:38.5:10:1.5, N/P 6, luciferase mRNA

| SMILES | Particle size (nm) |
| --- | --- |
| CCCCCCCCCSC(=O)C(C)(C)CCCCCC(CCCCCC(C)(C)C(=O)OCC#CCCC(CCCC)CCCC)OC(=O)CCCN(C)C (centres unmarked) [Compound 119] | 80.98 |

System: not listed separately
Assay: Encapsulation efficiency by Quant-it RiboGreen RNA Assay
Type: physicochemical
Conditions: LNP 50:38.5:10:1.5, N/P 6, luciferase mRNA
Description: as §1
The particle size and particle size dispersity index (PDI) of the prepared lipid nanoparticles were measured using a Zetasizer Pro (purchased from Malvern Instruments Ltd) and a DynaPro NanoStar (purchased from Wyatt) dynamic light scattering instrument. […] This parameter was measured by the method of Quant-it™ RiboGreen RNA Assay (purchased from Invitrogen). […]

| SMILES | Encapsulation efficiency (%) |
| --- | --- |
| CCCCCCCCCSC(=O)C(C)(C)CCCCCC(CCCCCC(C)(C)C(=O)OCC#CCCC(CCCC)CCCC)OC(=O)CCCN(C)C (centres unmarked) [Compound 119] | 86.92 |
| CCCCC/C=C\C/C=C\CCCCCCCCC(CCCCCCCC/C=C\C/C=C\CCCCC)OC(=O)CCCN(C)C [DLin-MC3-DMA, reference compound] | 95.62 |

System: C57BL/6 mice
Assay: Animal experiment: in vivo bioluminescence after i.v. lipid nanoparticles encapsulated with luciferase mRNA
Conditions: compound 20 vs. D1, compound 46 vs. D2
Description: The delivery effect and safety of nanoparticles encapsulated with luciferase mRNA (Trilink, L-7202) in mice were evaluated. The test mice were SPF-grade C57BL/6 mice, female, 6-8 weeks old, weighing 18-22 g, and were purchased from SPF (Beijing) Biotechnology Co., Ltd. All animals were acclimatized for more than 7 days prior to the experiment, and had free access to food and water during the experiment. The conditions include alternating light and dark for 12/12 h, the indoor temperature of 20-26° C. and the humidity of 40-70%. The mice were randomly grouped. […] The anesthetized mice were placed in IVIS for fluorescence imaging, and data acquisition and analysis were performed on the concentrated distribution area of fluorescence.
The in vivo delivery efficiency of lipid nanoparticle carriers was expressed as the mean values of fluorescence intensity and total photon count in different animals within the same subject group, as shown in Table 5. Higher values of fluorescence intensity and total photon count indicate higher in vivo delivery efficiency of this mRNA fragment by lipid nanoparticles. […]

| SMILES | in vivo delivery efficiency compared with the molecule without tetramethyl |
| --- | --- |
| CCCCCCCCCOC(=O)C(C)(C)CCCCCC(CCCCCC(C)(C)C(=O)OCC(CCCCC)CCCCCCC)OC(=O)CCCN(C)C (centres unmarked) [Compound 46] | significantly increased in vivo delivery efficiency |
